What was measured:
Wistar Kioto male rats = experiment: Treadmill exercise: average duration of effort and recovery times after effort; type: in vivo; details: for average duration of the effort on the treadmill: after day 14 of treatment, oral by endogastric tube for 30 days; for average duration of the effort on the treadmill / Average recovery times after effort: versus placebo; for effort lasting (duration of the repeated effort on a treadmill) / rats able to sustain the effort on a treadmill already 30 minutes after suspending their exercise / time after which the remaining rats were able to repeat the effort: day 30; for effort lasting (duration of the repeated effort on a treadmill): effort repeated 30 minutes after end of exercise; for effort lasting (duration of the repeated effort on a treadmill) / time after which the remaining rats were able to repeat the effort: same doses as E4; for rats able to sustain the effort on a treadmill already 30 minutes after suspending their exercise: oral, complex 1 360 µg/kg/day, 0.4 mg/kg/day (complex 2 3 mg/kg/day), 6 mg/kg/day (complex 3 50 mg/kg/day); for time after which the remaining rats were able to repeat the effort: rats not able to repeat at 30 minutes; for Average recovery times after effort: day 30 of treatment
Protocol: (§1) Wistar Kioto male rats weighing 350 g were divided into nine groups of eight animals each (numbered 1 to 8 for each test group) and were treated with amounts of complex 1 equal to 20 µg/kg/day or 40 µg/kg/day of noncomplexed active ingredient, of complex 2 equal to 0.4 mg/kg/day of noncomplexed active ingredient and of complex 3 equal to 6 mg/kg/day of noncomplexed active ingredient, orally with an endogastric tube for 30 days, during which the animals were exercised and tested. The tested doses were the minimum ones required to restore blood K^+ levels after exercise. • Placebo group treated with physiological solution enriched with hydroxypropyl-β-cyclodextrin; • Group treated with 20 µg/kg/day of 6-[1-piperidinyl]pyrimidine-2,4-diamine-3-oxide; • Group treated with […]/day of 6-[1-piperidinyl]pyrimidine-2,4-diamine-3-oxide; • Group treated with 180 µg/kg/day of complex 1; • Group treated with 360 µg/kg/day of complex 1; • Group treated with 0.4 mg/kg/day of [±]-N-cyano-N-4-pyridinyl-N-[1,2,2-trimethylpropyl]-guanidine; • Group treated with 3 mg/kg/day of complex 2; • Group treated with 6 mg/kg/day of N-[5-sulfamoyl-1,3,4-thiadiazol-2-yl]acetamide; • Group treated with 50 mg/kg/day of complex 3.
(§2) Levels of venous plasma K^+ taken from the femoral vein before and after exercise were also measured once a week per rat in animals anesthetized with chloral hydrate at a dose of 0.5 g/kg.
Each test group was subjected to daily trials at an initial speed of 15 m/min. In the second week, the speed was increased to 25 m/min, in the third week it was raised to 35 m/min, and in the fourth week it was increased to 45 m/min. Administration was performed in the morning.
The treadmill was equipped with a sensor which was sensitive to the weight of the rat, set to a generated weight force of 60 g/30 sec, and inserted in the rear wall of the time measurement chamber.

[1] = tested on: patients affected by hypokalemias; details: guanidine 25 mg/day or more, acetamide 100 and 500 mg/day; cited from earlier work
venous plasma K^+ [2] = experiment: Venous plasma K^+ levels before and after treadmill exercise; type: in vivo, Wistar Kioto male rats; details: for K^+ values 30 minutes after the end of the administration: 0.4 mg/kg/day (complex 2 3 mg/kg/day), 6 mg/kg/day (complex 3 50 mg/kg/day); for levels of K^+ of the animals that did not respond to treatment: up to 100 minutes after the end of the effort
Protocol: as §1, §2

[3] = rat, in vivo
[4] = Undesirable effects: hypotension (pressure measured with flow meter); design: species or system rats; details: rat, in vivo
Protocol: Pressure measurements were made by means of a T206 dual-channel flow meter by Transonic System Inc (Ithaca, NY, USA). In the control animals not subjected to stress or pharmacological treatments, pressure was 91±7 mm Hg (N=56 rats). The pressure values of the animals in our test groups prior to the beginning of pharmacological treatment were between 85 mm Hg and 105 mm Hg. The pressures were measured in the morning, at rest, prior to administration. […] The observed variations remained constant to the end of the treatment. […] The pressure values used to plot the chart refer to the values from day 21 to day 30 of treatment (Chart 4). [formula]

animal models = details: doses of 1.5-5 mg/day, noncomplexed form; cited from earlier work
venous plasma K^+ [5] = experiment: Venous plasma K^+ levels before and after treadmill exercise; type: in vivo, Wistar Kioto male rats; details: 5 animals per group; up to 100 minutes after the end of the effort; complex 1 180 µg/kg/day, noncomplexed 20 µg/kg/day
[6] = animals that responded to treatment
[7] = animals that responded to treatment, same doses as E13

Row | Compound | average duration of the effort on the treadmill (Wistar Kioto male rats) | effort lasting (duration of the repeated effort on a treadmill) (Wistar Kioto male rats) | rats able to sustain the effort on a treadmill already 30 minutes after suspending their exercise (Wistar Kioto male rats) | time after which the remaining rats were able to repeat the effort (Wistar Kioto male rats) | Average recovery times after effort (Wistar Kioto male rats) | effect on muscular weakness, paralysis attacks and symptoms [1] | K^+ values 30 minutes after the end of the administration (venous plasma K^+ [2]; [6]) | K^+ values after 60 minutes (venous plasma K^+ [2]; [7]) | levels of venous K^+ after 100 minutes (venous plasma K^+ [2]; [7]) | levels of K^+ of the animals that did not respond to treatment (venous plasma K^+ [2]; same doses as E13) | average rate increase (heart rate) [3] | reduction in average pressure [4] | effect on muscular weakness and muscular invalidity (animal models) | rats that responded to the treatment in terms of both functional and blood parameters (Wistar Kioto male rats; low dose: complex 1 180 µg/kg/day, noncomplexed 20 µg/kg/day) | values of K^+ 30 minutes after the end of the effort (venous plasma K^+ [2]) | levels of venous K^+ after 100 minutes (venous plasma K^+ [2]; after the end of the effort) | values of K^+ after 60 minutes (venous plasma K^+ [2]; after the end of the effort) | K^+ levels of the animals that did not respond to the treatment (venous plasma K^+ [5])
1 | CC(=O)Nc1nnc(S(N)(=O)=O)s1 [N-[5-sulfamoyl-1,3,4-thiadiazol-2-yl]acetamide] | significantly longer | 7 ± 2 min | 4 rats out of 8 | 80 min | reduced significantly | useful in reducing symptoms and muscular invalidity caused by exercise | 6.2±2 mEq/l | 5.8±1 mEq/l | 5.6±1 mEq/l | below 3 mEq/l | 9±2% | 15% |  |  |  |  |  | 
2 | [±]-N-cyano-N-4-pyridinyl-N-[1,2,2-trimethylpropyl]-guanidine | significantly longer | 7.4 ± 1 min | 5 rats out of 8 | 70 min | reduced significantly | capable of reducing muscular weakness and the frequency of paralysis attacks | 5.2±2 mEq/l | 4.8±1 mEq/l | 4.6±1 mEq/l | below 3 mEq/l | 14±2% | 13% |  |  |  |  |  | 
3 | Nc1cc(N2CCCCC2)nc(N)[n+]1[O-] [6-[1-piperidinyl]pyrimidine-2,4-diamine-3-oxide] | significantly longer | 7.2 ± 1 min | 6 rats out of 8 | 90 min | reduced significantly |  |  |  |  |  | 10±2% | 8% | capable of preventing muscular weakness and muscular invalidity | 3 rats out of 8 | 5.2±2 mEq/l | 4.5±1 mEq/l | 4.2±1 mEq/l | lower than 3 mEq/l

From EP1323432A1, “Complexes of cyclodextrins with potassium ion homeostasis regulators” (priority 2001, dated 2003)
